From US8673914B2, “Use of phosphodiesterase inhibitors for treating multidrug resistance” (St. John's University, priority 2011, dated 2014)
Read-outs that look alike come from different tables or passages of the source. Marks after values point to notes of the source that are not given here.

Columns and labels:
[1] = MTT cytotoxicity assay (Example 4); assay type: cell-based; details: human; HEK/MRP7; alone; read-out: IC50 of vinblastine;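 for fold-resistance, vinblastine: drug IC50 in HEK/MRP7 divided by IC50 in parental HEK293-pcDNA3.1 cells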
Experimental: (§1) The MRP7 cDNA was generously provided by Dr. Gary Kruh (University of Illinois, Chicago, Ill.) and inserted into the pcDNA3.1 expression vector. […] Individual colonies were selected in medium containing G418 (1 mg/ml) and cultured for further analysis.
(§2) MTT colorimetric assay was performed to analyze the drug sensitivity as previously described (Shi et al. (2007) Cancer Res. 67:11012-20). HEK293-pcDNA3.1 and HEK/MRP7 cells were seeded into 96-well plates in triplicate at 6000 cells/well.
(§3) After drug incubation of 68 h, 20 μl MTT solution (4 mg/ml) was added into each well. […] The Bliss method was used to calculate the IC50 values according to survival curves.

[2] = tested on: HEK/MRP7; assay: MTT cytotoxicity assay (Example 4); assay type: cell-based; details: alone;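 for fold-resistance, vinblastine: drug IC50 in HEK/MRP7 divided by IC50 in parental HEK293-pcDNA3.1 cells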
Experimental: as §1, §2, §3

[3] = tested on: HEK 293-pcDNA-3.1; assay: MTT cytotoxicity assay (Example 4); assay type: cell-based
Experimental: as §1, §2, §3

[4] = tested on: KB-V1; assay: MTT cytotoxicity/reversal assay (Example 2); assay type: cell-based, human
Experimental: (§4) The ABCB1-overexpressing drug resistant cell line KB-V1 (generously provided by Dr. Gottesman, NCI, NIH) was established by a stepwise concentration increase of vinblastine in the culture medium of KB-3-1 cells and subsequently culturing these cells in medium with 1 μg/mL of vinblastine. An ABCC1-overexpressing MDR cell line, KB-CV60, was also derived from KB-3-1 cells and was maintained in medium with 1 μg/mL of cepharanthine and 60 ng/mL of vincristine. Both KB-C2 and KB-CV60 cell lines were kindly provided by Dr. Akiyama (Kagoshima University, Japan). HEK293/pcDNA3.1, ABCG2-482-R5, ABCG2-482-G2, and ABCG2-482-T7 cells were established by selection with 2 mg/mL G418 after transfecting HEK293 with either (1) empty pcDNA3.1 vector or (2) pcDNA3.1 vector containing full length ABCG2 coding either (2a) wild-type arginine (R) or mutant (2b) glycine (G) or (2c) threonine (T) at amino acid position 482, respectively. The wild-type ABCG2-overexpressing drug-resistant cell line MCF-7/Flv1000 was cultured in the medium with 1 μM of flavopiridol. […] Another G482 mutant ABCG2-overexpressing drug resistant cell line, S1-M1-80, was maintained in the medium with 80 μM of mitoxantrone. […] All the cell lines were grown as adherent monolayers in flasks with DMEM (Dulbecco's modified Eagle's medium) culture medium (Hyclone Co.) containing 10% bovine serum at 37° C. in a humidified atmosphere of 5% CO2.
(§5) Cells in 96-well plates were preincubated with or without the reversal agents for 1 h and then different concentrations of chemotherapeutic drugs were added into designated wells. After 68 h of incubation, MTT solution (4 mg/mL) was added to each well, and the plate was further incubated for 4 h, allowing viable cells to change the yellow-colored MTT into dark-blue formazan crystals. Subsequently the medium was discarded, and […] of DMSO was added into each well to dissolve the formazan crystals. The absorbance was determined at 570 nm by an OPSYS MR Microplate Reader from DYNEX Technologies, Inc.

[5] = tested on: KB-C2; assay: MTT cytotoxicity/reversal assay (Example 2); assay type: cell-based, human
Experimental: as §4, §5

[6] = tested on: KB-3-1; assay: MTT cytotoxicity/reversal assay (Example 2); assay type: cell-based, human
Experimental: as §4, §5

[7] = tested on: S1/FLV5000; assay: cells; assay type: cell-based
Experimental: as §4, §5

[8] = tested on: S1-M1-80; assay: MTT cytotoxicity/reversal assay (Example 2); assay type: cell-based
Experimental: as §4, §5

[9] = tested on: MCF-7/Flv1000; assay: MTT cytotoxicity/reversal assay (Example 2); assay type: cell-based; details: MCF-7/Flv1000, alone
Experimental: as §4, §5

[10] = tested on: MCF7/ADVP3000; assay: MTT cytotoxicity/reversal assay (Example 2); assay type: cell-based
Experimental: as §4, §5

[11] = tested on: HEK293/pcDNA3; assay: MTT cytotoxicity/reversal assay (Example 2); assay type: cell-based
Experimental: as §4, §5

[12] = tested on: MCF-7; assay: MTT cytotoxicity/reversal assay (Example 2); assay type: cell-based
Experimental: as §4, §5

[13] = tested on: S1; assay: MTT cytotoxicity/reversal assay (Example 2); assay type: cell-based
Experimental: as §4, §5

[14] = tested on: HEK/ABCG2-G2; assay: MTT cytotoxicity/reversal assay (Example 2); details: HEK/ABCG2-G2, alone
Experimental: as §4, §5

[15] = tested on: HEK/ABCG2-T7; assay: MTT cytotoxicity/reversal assay (Example 2); details: HEK/ABCG2-T7, alone
Experimental: as §4, §5

[16] = tested on: HEK/ABCG2-R5; assay: MTT cytotoxicity/reversal assay (Example 2); details: HEK/ABCG2-R5, alone
Experimental: as §4, §5

[17] = tested on: HEK293/pcDNA3.1; assay: MTT cytotoxicity/reversal assay (Example 1); assay type: cell-based; details: HEK293/pcDNA3.1, alone
Experimental: (§6) The KB-C2 and KB-3-1 were kindly provided by Dr. Akiyama (Kagoshima University, Japan). HEK293-pcDNA3.1 and wild-type HEK/ABCG2 transfected cells were established by selection with G418 after transfecting HEK293 with either (1) empty pcDNA3.1 vector or (2) pcDNA3.1 vector containing full length of ABCG2 coding arginine (R) at amino acid position 482, and were then cultured in a medium with 2 mg/ml of G418 (ABCG2-482-R2 cells). Similarly, the HEK/MRP1 (ABCC1) and HEK/ABCB1 cells were generated by transfecting the HEK293 cells with either the MRP1 expression vector or the ABCB1 expression vector. All of the cell lines were grown in Dulbecco's modified Eagle's medium (DMEM) supplemented with 10% bovine serum, 100 units/ml penicillin, and […] streptomycin in a humidified incubator containing 5% CO2 at 37° C.
(§7) The MTT assay was used to assess cytotoxicity. The cultured cells were harvested with trypsin and resuspended in a final concentration of 4×10^3 cells/well for KB-3-1; 7.5×10^3 cells/well for KB-C2; and 8×10^3 for all of the other cell lines used in this study. Cells were seeded evenly in 96-well multiplates. […] After 68 h of incubation, 20 μl of the MTT solution (4 mg/ml) was added to each well, and the plate was further incubated for 4 h at 37° C., allowing viable cells to convert the yellow-colored MTT into dark-blue formazan crystals. Subsequently, the medium was discarded, and 100 μl of DMSO was added into each well to dissolve the formazan crystals, generating purple color. The absorbance was determined at 570 nm by an OPSYS Microplate Reader from DYNEX Technologies, Inc. (Chantilly, Va.). […] The degree of the reversal of multidrug resistance (MDR) was calculated by dividing the IC50 of an anticancer drug, e.g., an antineoplastic or chemotherapeutic drug (agent, compound), in a cell type in the absence of a reversal agent by the IC50 of the anticancer drug in the same cell type in the presence of the reversal agent. The IC50 values were calculated from survival curves using the Bliss method.

[18] = tested on: ABCG2-482-R2 (ABCG2); assay: MTT cytotoxicity/reversal assay (Example 1)
Experimental: as §6, §7

[19] = tested on: KB-3-1; assay: MTT cytotoxicity/reversal assay (Example 1); assay type: cell-based, human; details: read-out: IC50 of cisplatin, alone
Experimental: as §6, §7

[20] = Homo sapiens, alone, read-out: IC50 of mitoxantrone
[21] = read-out: IC50 of cisplatin, alone

SMILES: CC[C@]1(O)C[C@@H]2CN(CCc3c([nH]c4ccccc34)[C@@](C(=O)OC)(c3cc4c(cc3OC)N(C)[C@H]3[C@@](O)(C(=O)OC)[C@H](OC(C)=O)[C@]5(CC)C=CCN6CC[C@]43[C@@H]65)C2)C1 [Vinblastine, vinblastine]
- IC50 at 68 h [1]: 56.3 ± 4.61 nM
- fold-resistance, vinblastine [2]: (5.03)
- fold-resistance, vinblastine ([3]; HEK 293-pcDNA-3.1, alone): (1.0)
- IC50 ([3]; read-out: IC50 of vinblastine): 11.2 ± 1.23 nM
- fold-resistance, vinblastine ([4]; alone): (120.1)
- fold-resistance, vinblastine ([5]; alone): (10.3)
- fold-resistance, vinblastine ([6]; alone): (1.0)^c

SMILES: O=C1c2c(O)ccc(O)c2C(=O)c2c(NCCNCCO)ccc(NCCNCCO)c21 [Mitoxantrone, mitoxantrone]
- fold-resistance, mitoxantrone [7]: (3.0)
- IC50 ([7]; S1/FLV5000, alone, read-out: IC50 of mitoxantrone): 1120 ± 144 nM
- IC50 [8, 20]: 224000 ± 8600 nM
- fold-resistance, mitoxantrone ([8]; alone): (559.3)
- fold-resistance, mitoxantrone [9]: (66.7)
- IC50 ([9]; read-out: IC50 of mitoxantrone): 511000 ± 16700 nM
- IC50 [10, 20]: 279000 ± 6030 nM
- fold-resistance, mitoxantrone ([10]; alone): (36.4)
- IC50 [11, 20]: 35.6 ± 3 nM
- fold-resistance, mitoxantrone ([11]; alone): (1.0)^c
- IC50 ([12]; Homo sapiens, MCF7, alone, read-out: IC50 of mitoxantrone): 7660 ± 193 nM
- fold-resistance, mitoxantrone ([12]; alone): (1.0)^c
- fold-resistance, mitoxantrone ([13]; alone): (1.0)^c
- IC50 ([13]; alone, read-out: IC50 of mitoxantrone): 380 ± 41.6 nM
- fold-resistance, mitoxantrone [14]: (31.0)
- fold-resistance, mitoxantrone [15]: (23.7)
- fold-resistance, mitoxantrone [16]: (12.8)

SMILES: CCc1c2c(nc3ccc(O)cc13)-c1cc3c(c(=O)n1C2)COC(=O)[C@]3(O)CC [SN-38, 7-ethyl-10-hydroxy-20(S)-camptothecin]
- fold-resistance, SN-38 ([7]; S1/FLV5000, alone): (1.4)
- IC50 ([7]; S1/FLV5000, alone, read-out: IC50 of SN-38): 344 ± 87.4 nM
- fold reversal, SN-38 [17]: (1.00)
- IC50 ([17]; read-out: IC50 of SN-38): 116 ± 15.1 nM
- fold-resistance, SN-38 ([8]; alone): (14.4)
- IC50 ([8]; alone, read-out: IC50 of SN-38): 3550 ± 1400 nM
- fold-resistance, SN-38 [9]: (18.7)
- IC50 ([9]; read-out: IC50 of SN-38): 22800 ± 2000 nM
- fold-resistance, SN-38 ([10]; alone): (11.3)
- IC50 ([10]; alone, read-out: IC50 of SN-38): 14300 ± 1620 nM
- fold-resistance, SN-38 ([11]; alone): (1.0)^c
- IC50 ([11]; alone, read-out: IC50 of SN-38): 5.8 ± 0.2 nM
- fold-resistance, SN-38 ([12]; alone): (1.0)^c
- IC50 ([12]; alone, read-out: IC50 of SN-38): 1220 ± 263 nM
- fold-resistance, SN-38 ([13]; alone): (1.0)^c
- IC50 ([13]; alone, read-out: IC50 of SN-38): 245 ± 17 nM
- fold-resistance, SN-38 [14]: (2.3)
- IC50 ([14]; read-out: IC50 of SN-38): 204 ± 136 nM
- fold-resistance, SN-38 [15]: (20.2)
- IC50 ([15]; read-out: IC50 of SN-38): 117 ± 70.4 nM
- fold-resistance, SN-38 [16]: (22.1)
- IC50 ([16]; read-out: IC50 of SN-38): 128 ± 88.2 nM
- fold reversal, SN-38 ([18]; alone): (1.00)
- IC50 ([18]; read-out: IC50 of SN-38, alone): 3650 ± 547 nM

SMILES: N.N.[Cl][Pt][Cl] [Cisplatin, cisplatin]
- IC50 ([7]; read-out: IC50 of cisplatin, S1/FLV5000, alone): 53400 ± 5800 nM
- IC50 ([17]; read-out: IC50 of cisplatin): 890000 ± 33900 nM
- IC50 ([3]; read-out: IC50 of cisplatin, HEK 293-pcDNA-3.1, alone): 1570 ± 85 nM
- IC50 [8, 21]: 18000 ± 2590 nM
- IC50 ([9]; read-out: IC50 of cisplatin): 35100 ± 1860 nM
- IC50 [10, 21]: 31100 ± 3200 nM
- IC50 [11, 21]: 1630 ± 170 nM
- IC50 [12, 21]: 34400 ± 1760 nM
- IC50 [13, 21]: 14700 ± 2230 nM
- IC50 [4, 21]: 1760 ± 178 nM
- IC50 [5, 21]: 1730 ± 83 nM
- IC50 [6, 21]: 1740 ± 161 nM
- IC50 [19]: 1900 ± 70.9 nM
